In patent US8415469B2, “Compounds and methods for kinase modulation, and indications therefor” (Plexxikon Inc., priority 2005, dated 2013):

What was measured:
Type in all cases: biochemical
[1] = target: T1, Flt3 (Homo sapiens, UniProt P36888); experiment: Z'-Lyte FRET kinase assay (Invitrogen), Flt3; details: read-out: IC50, activity toward kinase Flt3
T1 construct: purchased Invitrogen (assay run by Invitrogen)
T1 sequence (P36888 27-993): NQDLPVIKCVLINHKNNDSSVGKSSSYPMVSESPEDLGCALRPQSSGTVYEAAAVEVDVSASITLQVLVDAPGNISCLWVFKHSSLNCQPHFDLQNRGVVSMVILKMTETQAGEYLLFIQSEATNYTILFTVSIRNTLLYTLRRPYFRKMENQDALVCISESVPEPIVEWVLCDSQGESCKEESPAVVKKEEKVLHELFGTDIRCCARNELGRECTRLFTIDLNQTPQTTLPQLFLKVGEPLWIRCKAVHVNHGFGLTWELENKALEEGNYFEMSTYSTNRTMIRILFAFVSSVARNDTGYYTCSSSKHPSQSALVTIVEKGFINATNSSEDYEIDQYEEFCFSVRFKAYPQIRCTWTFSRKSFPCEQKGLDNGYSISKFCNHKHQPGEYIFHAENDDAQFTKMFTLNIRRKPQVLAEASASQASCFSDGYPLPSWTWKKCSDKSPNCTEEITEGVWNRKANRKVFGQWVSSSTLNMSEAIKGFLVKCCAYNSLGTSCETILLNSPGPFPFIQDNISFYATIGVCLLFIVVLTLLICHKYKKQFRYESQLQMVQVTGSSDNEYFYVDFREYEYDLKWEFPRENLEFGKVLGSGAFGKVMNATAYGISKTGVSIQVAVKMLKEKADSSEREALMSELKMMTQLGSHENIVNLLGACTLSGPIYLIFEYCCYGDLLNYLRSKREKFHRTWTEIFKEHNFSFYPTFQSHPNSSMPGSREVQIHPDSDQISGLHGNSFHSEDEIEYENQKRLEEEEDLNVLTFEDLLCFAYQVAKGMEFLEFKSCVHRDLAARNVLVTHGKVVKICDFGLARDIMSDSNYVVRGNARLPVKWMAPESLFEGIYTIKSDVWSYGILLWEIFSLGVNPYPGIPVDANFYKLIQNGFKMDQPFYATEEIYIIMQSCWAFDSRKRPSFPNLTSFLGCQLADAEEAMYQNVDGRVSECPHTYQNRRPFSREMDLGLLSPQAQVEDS
Excerpt: The effect of potential modulators of kinase activity can be measured in a variety of different assays known in the art. For example, direct radiometric, indirect FRET or AlphaScreen assays may be used to assess the level of phosphorylation of a substrate in the presence of test compounds in order to determine the inhibitory affect of the compound on the kinase. Invitrogen (Carlsbad, Calif.) uses a FRET based assay for Btk, EGFR, EphB2, Flt3, lrak4, Kdr, MAP2K1, MAPKAPK2, PDGFRB, PKC theta, Stk6 and Yes. For these assays, compounds of the invention were screened by Invitrogen using Z′-Lyte™ kinase assay.
Briefly, the Invitrogen kinase assay involves use of a specific peptide substrate optimized for each kinase, containing a fluorophore at each end that make up the FRET pair. The peptide sensitivity to proteolytic cleavage depends on phosphorylation of the peptide. Non-phosphorylated peptide is cleaved by a protease while peptide phosphorylated by the kinase is not cleaved. Cleavage of the peptide disrupts the FRET between the donor (coumarin) and acceptor (fluorescein) fluorophores, resulting in an increase in the ratio of donor emission to acceptor emission. The emission ratio of coumarin to fluorescein is used to assess the reaction progress. The extent of phosphorylation is determined from the emission ratio, which is low when the kinase is active (phosphorylated peptide is not cleaved, FRET pair connected) or higher for inhibited kinase (non-phosphorylated peptide is cleaved, FRET pair separated). Thus, the assay involves a kinase reaction in the presence of varying concentrations of a given compound, a development reaction with site specific protease, and detection of the fluorescent emission ratio of coumarin and fluorscein. […] Reaction conditions for each kinase are determined to provide optimal reaction times, incubation temperature, kinase and ATP concentrations. Test samples are made up in 1× kinase buffer (50 mM HEPES pH 7.5, 50 mM MgCl2, 5 mM EGTA, 0.05% BRIJ-35) and compound at desired concentration prepared in DMSO such that the final DMSO is 1%. […] Typically, assay plates are prepared to 10 μl final volume per sample, adding 2.5 μl of compound at 4× the desired concentration in 4% DMSO (serial dilution of compound provides concentration curve), 5 μl of the desired kinase mixed with Z′-LYTE™ peptide substrate (2× in 2× kinase buffer, final peptide at 2 μM), and 2.5 μl of 4×ATP solution. All kinase except for MAP2K1 were at 10 μM ATP in the kinase reaction, while MAP2K1 was at 100 μM. Samples are mixed and the kinase reaction is incubated 1 hour at room temperature, after which 5 μl of development solution is added and mixed. After incubation for another 1 hour at room temperature, 5 μl of stop reagent is added to each sample and mixed. The fluorescence signals are measured to determine the emission ratio.

[2] = target: T2, Pyk2 (Homo sapiens, UniProt Q14289); experiment: AlphaScreen kinase assay, Pyk2; details: read-out: IC50, activity toward kinase Pyk2
T2 construct: purchased Upstate Biotechnology

[3] = target: T3, Jnk2 (Homo sapiens, UniProt P45984); experiment: AlphaScreen kinase assay, Jnk2; details: read-out: IC50, activity toward kinase Jnk2
T3 construct: purchased Roche Protein Expression Group (Indianapolis, IN)
Outline: (§1)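 Uses phospho-specific antibody on acceptor beads plus streptavidin donor beads capturing biotinylated peptide substrate; singlet oxygen from donor excites nearby acceptor. Inhibitors tested in 8-point, 1:3 titrations starting from 20 mM DMSO solutions.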

[4] = target: MAP4K4 (Homo sapiens, UniProt O95819); experiment: AlphaScreen kinase assay, MAP4K4; details: read-out: IC50, activity toward kinase MAP4K4
[5] = target: IGF1R (Homo sapiens, UniProt P08069); experiment: AlphaScreen kinase assay, IGF1R; details: read-out: IC50, activity toward kinase IGF1R
[6] = target: PDGFRA (Homo sapiens, UniProt P16234); experiment: AlphaScreen kinase assay, PDGFRA; details: read-out: IC50, activity toward kinase PDGFRA
Excerpt: (§2) AlphaScreen assay was used to screen additional kinases. The assay is similarly dependent on the phosphorylation of a peptide substrate. In this assay, an antibody that recognizes phosphorylated substrate is bound to an acceptor bead. The peptide substrate is attached to biotin, which binds to a donor head that contains streptavidin. Thus phosphorylated substrate is bound by antibody and streptavidin, bringing the donor and acceptor heads into close proximity when kinase is not inhibited. The donor produces singlet oxygen which results in emission from the acceptor when they are in close proximity. Conversely, when kinase is inhibited, the donor and acceptor beads are not associated and the emission from the acceptor is reduced.
(§3) AlphaScreen assays were done using compounds dissolved in DMSO to a concentration of 20 mM. The compounds were diluted accordingly to the desired final concentrations in each sample well, using 1:3 serial dilution for a total of 8 concentration points.

[7] = target: Hck (Homo sapiens, UniProt P08631); experiment: AlphaScreen kinase assay, Hck; details: read-out: IC50, activity toward kinase Hck
Excerpt: as §2, §3

[8] = target: Syk (Homo sapiens, UniProt P43405); experiment: AlphaScreen kinase assay, Syk; details: read-out: IC50, activity toward kinase Syk
Outline: as §1

Measured: IC50

Chain of PDGFRA (P16234 24-1089): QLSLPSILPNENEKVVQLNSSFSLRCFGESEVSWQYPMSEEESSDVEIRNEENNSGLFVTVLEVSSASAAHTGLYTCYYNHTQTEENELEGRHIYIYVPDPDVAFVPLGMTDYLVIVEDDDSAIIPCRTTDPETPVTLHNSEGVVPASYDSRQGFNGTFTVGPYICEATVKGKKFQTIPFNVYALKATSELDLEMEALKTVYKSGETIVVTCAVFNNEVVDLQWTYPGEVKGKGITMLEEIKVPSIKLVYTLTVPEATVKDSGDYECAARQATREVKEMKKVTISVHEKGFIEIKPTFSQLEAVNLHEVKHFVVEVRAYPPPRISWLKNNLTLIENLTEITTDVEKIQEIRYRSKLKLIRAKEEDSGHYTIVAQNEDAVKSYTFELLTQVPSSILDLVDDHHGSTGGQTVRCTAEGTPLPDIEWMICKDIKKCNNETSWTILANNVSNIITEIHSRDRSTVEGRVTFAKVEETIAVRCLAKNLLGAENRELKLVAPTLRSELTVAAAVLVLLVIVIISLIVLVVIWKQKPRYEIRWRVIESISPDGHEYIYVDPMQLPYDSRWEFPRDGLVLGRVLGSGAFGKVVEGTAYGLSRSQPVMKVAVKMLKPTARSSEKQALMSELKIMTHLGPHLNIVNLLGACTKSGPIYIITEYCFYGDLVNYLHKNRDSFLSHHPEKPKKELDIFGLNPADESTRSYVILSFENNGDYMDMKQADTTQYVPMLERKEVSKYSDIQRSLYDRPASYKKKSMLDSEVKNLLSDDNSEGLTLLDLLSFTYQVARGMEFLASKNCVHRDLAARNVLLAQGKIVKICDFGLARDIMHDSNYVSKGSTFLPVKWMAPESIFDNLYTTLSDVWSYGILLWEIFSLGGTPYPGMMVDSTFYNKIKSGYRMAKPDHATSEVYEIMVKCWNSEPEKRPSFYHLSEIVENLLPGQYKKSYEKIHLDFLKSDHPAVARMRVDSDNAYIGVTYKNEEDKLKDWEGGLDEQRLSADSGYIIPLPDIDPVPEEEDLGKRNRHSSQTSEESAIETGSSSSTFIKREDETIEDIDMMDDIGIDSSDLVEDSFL
T2 sequence (Q14289 whole entry): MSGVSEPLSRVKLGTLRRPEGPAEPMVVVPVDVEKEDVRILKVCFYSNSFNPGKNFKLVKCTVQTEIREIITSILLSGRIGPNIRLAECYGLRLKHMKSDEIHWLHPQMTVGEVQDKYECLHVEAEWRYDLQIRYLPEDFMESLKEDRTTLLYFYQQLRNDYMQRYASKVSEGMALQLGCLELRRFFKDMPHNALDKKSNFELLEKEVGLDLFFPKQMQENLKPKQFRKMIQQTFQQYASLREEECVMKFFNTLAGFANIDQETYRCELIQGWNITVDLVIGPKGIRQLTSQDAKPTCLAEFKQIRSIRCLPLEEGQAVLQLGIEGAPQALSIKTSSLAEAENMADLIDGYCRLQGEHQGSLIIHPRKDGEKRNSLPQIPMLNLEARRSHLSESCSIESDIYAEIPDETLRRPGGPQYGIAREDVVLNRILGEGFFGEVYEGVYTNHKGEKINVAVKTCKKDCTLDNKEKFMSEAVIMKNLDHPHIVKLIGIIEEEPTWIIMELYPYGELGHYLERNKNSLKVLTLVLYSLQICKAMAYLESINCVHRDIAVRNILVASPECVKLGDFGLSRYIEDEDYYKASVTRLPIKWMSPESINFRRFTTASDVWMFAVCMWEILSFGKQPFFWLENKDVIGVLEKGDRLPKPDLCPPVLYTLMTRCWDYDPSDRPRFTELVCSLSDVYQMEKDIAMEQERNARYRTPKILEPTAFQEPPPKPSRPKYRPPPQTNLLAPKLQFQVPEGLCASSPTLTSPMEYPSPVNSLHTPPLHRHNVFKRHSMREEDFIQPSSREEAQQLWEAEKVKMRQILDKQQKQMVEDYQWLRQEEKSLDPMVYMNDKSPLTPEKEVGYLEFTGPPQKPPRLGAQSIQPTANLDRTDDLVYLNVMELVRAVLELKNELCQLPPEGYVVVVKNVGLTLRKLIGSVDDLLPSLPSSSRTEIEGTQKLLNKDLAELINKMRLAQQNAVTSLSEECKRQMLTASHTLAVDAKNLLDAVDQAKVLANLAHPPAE
Chain of Hck (P08631 whole entry): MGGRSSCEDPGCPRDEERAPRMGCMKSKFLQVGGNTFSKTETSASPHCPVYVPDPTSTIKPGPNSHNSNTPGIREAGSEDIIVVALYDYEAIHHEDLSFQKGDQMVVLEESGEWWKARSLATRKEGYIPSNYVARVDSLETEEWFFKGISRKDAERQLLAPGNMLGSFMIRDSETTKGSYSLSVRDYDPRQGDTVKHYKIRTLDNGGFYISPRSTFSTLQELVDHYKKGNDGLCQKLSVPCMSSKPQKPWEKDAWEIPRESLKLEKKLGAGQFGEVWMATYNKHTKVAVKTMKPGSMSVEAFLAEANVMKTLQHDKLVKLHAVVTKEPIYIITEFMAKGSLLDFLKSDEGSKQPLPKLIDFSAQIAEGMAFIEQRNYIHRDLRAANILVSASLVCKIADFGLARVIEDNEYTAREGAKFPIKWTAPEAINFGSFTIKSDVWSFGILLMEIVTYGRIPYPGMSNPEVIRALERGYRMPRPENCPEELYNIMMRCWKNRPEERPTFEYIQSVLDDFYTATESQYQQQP
Chain of MAP4K4 (O95819 whole entry): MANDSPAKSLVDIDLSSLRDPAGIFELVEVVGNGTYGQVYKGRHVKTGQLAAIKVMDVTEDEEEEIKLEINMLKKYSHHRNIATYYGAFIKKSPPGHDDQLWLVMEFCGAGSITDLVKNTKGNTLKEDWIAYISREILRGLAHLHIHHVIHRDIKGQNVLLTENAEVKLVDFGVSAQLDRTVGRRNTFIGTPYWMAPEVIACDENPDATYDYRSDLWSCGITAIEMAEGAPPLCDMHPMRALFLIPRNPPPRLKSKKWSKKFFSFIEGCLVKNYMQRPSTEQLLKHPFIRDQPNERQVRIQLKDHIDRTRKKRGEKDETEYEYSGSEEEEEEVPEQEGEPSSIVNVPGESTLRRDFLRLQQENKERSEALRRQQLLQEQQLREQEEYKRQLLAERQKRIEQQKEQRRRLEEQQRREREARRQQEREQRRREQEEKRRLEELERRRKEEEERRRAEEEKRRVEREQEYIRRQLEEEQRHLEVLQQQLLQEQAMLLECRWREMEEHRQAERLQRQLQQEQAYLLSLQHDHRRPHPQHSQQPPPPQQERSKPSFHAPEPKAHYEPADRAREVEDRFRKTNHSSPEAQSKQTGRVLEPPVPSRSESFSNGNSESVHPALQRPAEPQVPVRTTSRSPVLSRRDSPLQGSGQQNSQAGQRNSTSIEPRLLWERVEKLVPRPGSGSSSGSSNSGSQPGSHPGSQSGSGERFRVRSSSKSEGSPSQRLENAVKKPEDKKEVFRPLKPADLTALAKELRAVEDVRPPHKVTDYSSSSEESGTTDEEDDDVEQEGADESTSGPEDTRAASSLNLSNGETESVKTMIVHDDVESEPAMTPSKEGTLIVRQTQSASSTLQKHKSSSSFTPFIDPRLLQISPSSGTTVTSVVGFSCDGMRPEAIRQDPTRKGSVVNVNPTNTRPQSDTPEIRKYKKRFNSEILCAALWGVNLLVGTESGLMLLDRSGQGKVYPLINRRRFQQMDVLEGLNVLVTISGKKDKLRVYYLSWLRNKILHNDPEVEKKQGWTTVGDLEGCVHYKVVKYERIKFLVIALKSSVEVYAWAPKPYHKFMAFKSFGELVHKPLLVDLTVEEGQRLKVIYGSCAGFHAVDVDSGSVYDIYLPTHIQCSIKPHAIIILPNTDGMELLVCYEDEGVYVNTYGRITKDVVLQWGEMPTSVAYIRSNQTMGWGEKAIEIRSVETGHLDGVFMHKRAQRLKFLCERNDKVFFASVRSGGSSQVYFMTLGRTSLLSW
T3 sequence (P45984 whole entry): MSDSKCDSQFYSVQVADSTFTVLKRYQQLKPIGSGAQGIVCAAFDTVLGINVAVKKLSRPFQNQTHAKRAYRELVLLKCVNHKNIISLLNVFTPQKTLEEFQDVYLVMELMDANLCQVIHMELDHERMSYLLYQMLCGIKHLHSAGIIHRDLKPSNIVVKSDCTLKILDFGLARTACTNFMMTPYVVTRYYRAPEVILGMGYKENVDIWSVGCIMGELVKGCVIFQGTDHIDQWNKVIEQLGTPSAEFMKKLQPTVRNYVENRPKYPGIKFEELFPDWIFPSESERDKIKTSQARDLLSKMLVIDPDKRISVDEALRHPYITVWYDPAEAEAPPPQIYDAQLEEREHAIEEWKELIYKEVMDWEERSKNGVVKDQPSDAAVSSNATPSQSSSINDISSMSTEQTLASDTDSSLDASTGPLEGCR

CCCS(=O)(=O)Nc1ccc(F)c(C(=O)c2c[nH]c3ncc(-c4ccccc4)cc23)c1F [Compound P-0636, Propane-1-sulfonic acid [2,4-difluoro-3-(5-phenyl-1H-pyrrolo[2,3-b]pyridine-3-carbonyl)-phenyl]-amide]
≤ 10 µM: [1] | [2]

CCCS(=O)(=O)Nc1ccc(F)c(C(=O)c2c[nH]c3ncc(-c4cccnc4)cc23)c1F [Compound P-0088, Propane-1-sulfonic acid [2,4-difluoro-3-(5-pyridin-3-yl-1H-pyrrolo[2,3-b]pyridine-3-carbonyl)-phenyl]-amide]
≤ 10 µM: [3] | [1] | [2] | [4]

OCCOc1ccc(F)c(Cc2c[nH]c3ncc(-c4cccnc4)cc23)c1F [Compound P-1394, 2-[2,4-Difluoro-3-(5-pyridin-3-yl-1H-pyrrolo[2,3-b]pyridin-3-ylmethyl)-phenoxy]-ethanol]
≤ 10 µM: [1] | [5] | [6] | [7] | [4]

CCCCNC(=O)Nc1ccc(F)c(C(=O)c2c[nH]c3ncc(-c4cccnc4)cc23)c1F [Compound P-1318, 1-Butyl-3-[2,4-difluoro-3-(5-pyridin-3-yl-1H-pyrrolo[2,3-b]pyridine-3-carbonyl)-phenyl]-urea]
≤ 10 µM: [3] | [1] | [7] | [4]

CCCC(=O)Nc1ccc(F)c(Cc2c[nH]c3ncc(-c4cccnc4)cc23)c1F [Compound P-1280]
≤ 10 µM: [1] | [6] | [2] | [4]

CCCS(=O)(=O)Nc1ccc(F)c(C(=O)c2c[nH]c3ncccc23)c1F [Compound P-0007, Propane-1-sulfonic acid [2,4-difluoro-3-(1H-pyrrolo[2,3-b]pyridine-3-carbonyl)-phenyl]-amide]
≤ 10 µM: [6] | [7] | [4]

O=C(Nc1ccc(Cc2c[nH]c3ncccc23)cc1)Nc1cccc(C(F)(F)F)c1 [Compound P-0262, 1-[4-(1H-Pyrrolo[2,3-b]pyridin-3-ylmethyl)-phenyl]-3-(3-trifluoromethyl-phenyl)-urea]
≤ 10 µM: [1] | [2]

CCCS(=O)(=O)Nc1ccc(F)c(C(=O)c2c[nH]c3ncc(OC)cc23)c1F [Compound P-0806, Propane-1-sulfonic acid [2,4-difluoro-3-(5-methoxy-1H-pyrrolo[2,3-b]pyridine-3-carbonyl)-phenyl]-amide]
≤ 10 µM: [1] | [6] | [7] | [2] | [4]

COc1cc(OC)cc(C(=O)c2c[nH]c3ncc(-c4cccc(NS(C)(=O)=O)c4)cc23)c1 [Compound P-1426, N-{3-[3-(3,5-Dimethoxy-benzoyl)-1H-pyrrolo[2,3-b]pyridin-5-yl]-phenyl}-methanesulfonamide]
≤ 10 µM: [1] | [6] | [7] | [4]

COc1cccc(C(=O)c2c[nH]c3ncc(-c4cccc(NC(C)=O)c4)cc23)c1F [Compound P-1336, N-{3-[3-(2-Fluoro-3-methoxy-benzoyl)-1H-pyrrolo[2,3-b]pyridin-5-yl]-phenyl}-acetamide]
not listed: [2] | [3]
≤ 10 µM: all other assays above
